For assay [1], the target named is Aldo-keto reductase family 1 member B1 (Rattus norvegicus) (UniProt P07943). Description: (§1) Inhibition of aldose reductase in Albino rat kidney assessed as decrease in NADPH concentration by spectrophotometrically.
The target in assay [2] is Aldo-keto reductase family 1 member B1 (Rattus norvegicus, UniProt P07943). Described as §1.

The term inhibition denotes the change of the read-out against control, counted positive when it falls. A word on the IC50: it is the point on the concentration scale where inhibition reaches its midpoint. Take `Cc1cc(C)c2occ(/C=C3/SC(=O)N(CC(=O)O)C3=O)c(=O)c2c1`: the inhibition in assay [1] worked out at 68.6%. In addition, the IC50 in assay [2] came to 678 nM.

On to `O=C1NC(=O)/C(=C\c2coc3ccc([N+](=O)[O-])cc3c2=O)S1`, for which the inhibition in assay [1] turned out to be 46.7%.

For `CC(C)c1ccc2occ(/C=C3/SC(=O)NC3=O)c(=O)c2c1`, the inhibition in assay [1] was 50.8%. Besides, the half-inhibitory concentration (IC50) in assay [2] is 955 nM.

With `Cc1ccc2occ(/C=C3/SC(=O)N(CC(=O)O)C3=O)c(=O)c2c1`, in assay [1], the inhibition is 61.2%. For the same molecule, the IC50 in assay [2] came to 805 nM.

`Cc1ccc2occ(/C=C3/SC(=O)NC3=O)c(=O)c2c1`: the inhibition in assay [1] was 52.7%. Besides, in assay [2], the IC50 came to 944 nM.

With `CCOC(=O)CN1C(=O)S/C(=C/c2coc3ccc(C(C)C)cc3c2=O)C1=O`, in assay [1], the inhibition stood at 9.46%.

As to `CCOC(=O)CN1C(=O)S/C(=C/c2coc3ccc(C)cc3c2=O)C1=O`, in assay [1], the inhibition was 0%.

In the case of `CC(C)c1ccc2occ(/C=C3/SC(=O)N(CC(=O)O)C3=O)c(=O)c2c1`, the inhibition in assay [1] is 77.3%. Besides, the IC50 in assay [2] came to 522 nM.

Take `CCOC(=O)CN1C(=O)S/C(=C/c2coc3ccccc3c2=O)C1=O`: in assay [1], the inhibition amounted to 8.18%.

As to `Cc1cc(C)c2occ(/C=C3/SC(=O)NC3=O)c(=O)c2c1`, the inhibition in assay [1] is 49.7%.

For the molecule `O=C(O)CN1C(=O)S/C(=C/c2coc3ccccc3c2=O)C1=O`, the inhibition in assay [1] was found to be 49.4%.

Turning to `O=C1NC(=O)/C(=C\c2coc3ccccc3c2=O)S1`, the inhibition in assay [1] is 42.4%.

As to `O=C(O)CN1C(=O)S/C(=C/c2coc3ccc([N+](=O)[O-])cc3c2=O)C1=O`, the inhibition in assay [1] was found to be 82.4%. Further, the IC50 in assay [2] was 261 nM.

With `CCOC(=O)CN1C(=O)S/C(=C/c2coc3c(C)cc(C)cc3c2=O)C1=O`, the inhibition in assay [1] stood at 0%.

These data come from ChEMBL document CHEMBL1154453, “Synthesis and aldose reductase inhibitory activity of some new chromonyl-2,4-thiazolidinediones” (Eur J Med Chem, 2008).
